Laboratory results reported in patent US12642759B2, “Cosmetic composition for improving skin containing extracts of polygala tenuifolia, angelica dahurica and elsholtzia splendens” (SOOY-K CO., LTD., priority 2023, dated 2026).

Tests used:
[1] = DPPH radical scavenging assay; type: biochemical; conditions: concentration 50 μg/mL, positive control
Protocol: Antioxidant efficacy was measured by DPPH radical scavenging activity based on the Blois' method. This assay is one of the generation methods. DPPH is purple in the radical state, and when reduced by receiving electrons, it changes its color to yellow (DPPH-H). 100 μL of 0.2 mM DPPH solution and 80 μL of samples of each concentration were mixed in a 96-well plate, reacted for 30 minutes at room temperature in the dark, and then absorbance was measured at 517 nm to calculate radical scavenging activity according to Equation 1 below. Ascorbic acid, an antioxidant, was used as a positive control, and a DPPH solution which was not treated with a sample was used as a negative control. [formula] ABTS Radical Scavenging Assay

[2] = ABTS radical scavenging assay; type: biochemical; conditions: concentration 50 μg/mL, positive control
Protocol: Antioxidant activity was measured using […] (ABTS) radical with reference to the Van den Berg method. This method uses the principle that ABTS+ radical, which has a blue-green color, is made to be transparent by antioxidants. 7 mM ABTS and 2.4 mM potassium persulfate were mixed and left at room temperature in the dark for 24 hours to form ABTS. Absorbance was measured at 734 nm, and the material was used for the experiment after adjusting the absorbance to 0.7±0.1. 100 μL of ABTS working solution and 100 μL of samples of each concentration were mixed and reacted in the dark for 10 minutes. Then, the absorbance was measured at […] and the radical scavenging activity was calculated as shown in Equation 2 below. Ascorbic acid, an antioxidant, was used as a positive control, and an ABTS solution which was not treated with a sample was used as a negative control. [formula] 1-5. Cell Culture

[3] = test system: Staphylococcus aureus; assay: Antibacterial activity, paper disc method; type: cell-based; conditions: 4 mg/mL, positive control, 8 mm paper disc, read-out: Clear zone
Protocol: The antibacterial effect was measured against Staphylococcus aureus (S. aureus). The paper disc method was used to measure the antibacterial activity of the samples. Each strain cultured on a solid plate medium was taken by a platinum loop, then inoculated into a 4 mL liquid medium, and cultured for 20 hours to activate it. Then, 500 μL of the strain was inoculated into 3 mL of liquid medium and cultured for 4 hours. The strain was inoculated onto a solid plate medium so that the number of bacteria was 1×10^6-5×10^6/mL, and then spread evenly using a spreader. Each sample was prepared according to the concentrations, and 50 μL of the sample was absorbed into a paper disc (Toyo, Japan) with a diameter of 8 mm. The paper disc was placed on a solid plate medium inoculated with the strain and cultured at 37° C. for 20 hours. Then, the diameter of the clear zone around the disc was measured. Disc diffusion test is performed by placing a disc into which a sample was absorbed on an agar plate medium inoculated with bacteria and culturing them, and then measuring the diameter of the inhibition zone (clear zone) of the sample that diffused around the disc as much as it inhibited the growth of the bacteria.

Q: With `O=C1O[C@H]([C@@H](O)CO)C(O)=C1O` [Ascorbic acid, ascorbic acid] as the compound, how does the “DPPH radical scavenging activity (antioxidant activity)” value [1] read?
A: 87.21±0.56%

Q: And the “ABTS radical scavenging activity (antioxidant activity)” value [2]?
A: 99.68±0.21%

Q: For `COC(=O)c1ccc(O)cc1` [Methyl paraben], which zone of inhibition at 4000 µg/mL [3] is on record?
A: 8.5 mm
